From patent publication US6875778B2, “Alkylene-tethered bis-nitroiminoimidazolidines, process for preparing the same, and insecticides containing the same” (Gifu University, priority 2002, dated 2005)

system: common cockroach; experiment: insecticidal activity against the common cockroach (abdominal injection, minimum lethal dose); format: in vivo; conditions: MLD = minimum lethal dose (moles/insect) at which two of three male adult common cockroaches became paralyzed or died; 1 to 10 μl of 1% by weight methanol solution injected into abdomen
Procedure: The insecticidal activity against the common cockroach was tested for the compounds of Examples 1 to 14 and the compound of Comparative Example 1. Methanol solutions containing 1% by weight of each compound were prepared. 1 to 10 μl of the methanol solution were injected into the abdomens of 3 male adult common cockroaches. The concentration at which two of the three adult insects became paralyzed or died, namely the minimum lethal dose (MLD: moles/insect) was then investigated.

Going from `O=[N+]([O-])N=C1N(CCN2CCN(Cc3ccc(Cl)nc3)C2=N[N+](=O)[O-])CCN1Cc1ccc(Cl)nc1` [Comp. Exp. 1, 1,2-bis[(6-chloronicotinyl)-2-nitroiminoimidazolidin-3-yl]ethane, reference compound] to `O=[N+]([O-])N=C1N(CCCN2CCN(Cc3ccc(Cl)nc3)C2=N[N+](=O)[O-])CCN1Cc1ccc(Cl)nc1` [Exp. 1, 1,3-bis[(6-chloronicotinyl)-2-nitroiminoimidazolidin-3-yl]propane], the “log (1/MLD)” value rises from 7.38 to 8.31.

First: O=[N+]([O-])N=C1N(CCCCN2CCN(Cc3ccc(Cl)nc3)C2=N[N+](=O)[O-])CCN1Cc1ccc(Cl)nc1 [Exp. 2, 1,4-bis[(6-chloronicotinyl)-2-nitroiminoimidazolidin-3-yl]butane]
Second: O=[N+]([O-])N=C1N(CCCCCCN2CCN(Cc3ccc(Cl)nc3)C2=N[N+](=O)[O-])CCN1Cc1ccc(Cl)nc1 [Exp. 4, 1,6-bis[(6-chloronicotinyl)-2-nitroiminoimidazolidin-3-yl]hexane]
The “log (1/MLD)” value of the first is lower: 7.97 for the first, 8.65 for the second.

Compared with `O=[N+]([O-])N=C1N(CCCCCCCN2CCN(Cc3ccc(Cl)nc3)C2=N[N+](=O)[O-])CCN1Cc1ccc(Cl)nc1` [Exp. 5, 1,7-bis[(6-chloronicotinyl)-2-nitroiminoimidazolidin-3-yl]heptane], `O=[N+]([O-])N=C1N(CCCCCCCCN2CCN(Cc3ccc(Cl)nc3)C2=N[N+](=O)[O-])CCN1Cc1ccc(Cl)nc1` [Exp. 6, 1,8-bis[(6-chloronicotinyl)-2-nitroiminoimidazolidin-3-yl]octane] is lower in “log (1/MLD)” value: 8.55 for the first, 8.35 for the second.

`O=[N+]([O-])N=C1N(CCCCCCCCCN2CCN(Cc3ccc(Cl)nc3)C2=N[N+](=O)[O-])CCN1Cc1ccc(Cl)nc1` [Exp. 7, 1,9-bis[(6-chloronicotinyl)-2-nitroiminoimidazolidin-3-yl]nonane] and `O=[N+]([O-])N=C1N(CCCCCCCCCCN2CCN(Cc3ccc(Cl)nc3)C2=N[N+](=O)[O-])CCN1Cc1ccc(Cl)nc1` [Exp. 8, 1,10-bis[(6-chloronicotinyl)-2-nitroiminoimidazolidin-3-yl]decane] are within 0.2 log units of each other in “log (1/MLD)” value: 8.56 for the first, 8.43 for the second.

`O=[N+]([O-])N=C1N(Cc2ccc(Cl)nc2)CCN1Cc1cccc(CN2CCN(Cc3ccc(Cl)nc3)C2=N[N+](=O)[O-])c1` [Exp. 12, 1,3-bis[(6-chloronicotinyl)-2-nitroiminoimidazolidin-3-yl]methylbenzene] and `O=[N+]([O-])N=C1N(Cc2ccc(CN3CCN(Cc4ccc(Cl)nc4)C3=N[N+](=O)[O-])cc2)CCN1Cc1ccc(Cl)nc1` [Exp. 13, 1,4-bis[(6-chloronicotinyl)-2-nitroiminoimidazolidin-3-yl]methylbenzene] are within 0.2 log units of each other in “log (1/MLD)” value: 7.71 for the first, 7.57 for the second.

With `O=[N+]([O-])N=C1N(CCCCCCN2CCN(Cc3cnc(Cl)s3)C2=N[N+](=O)[O-])CCN1Cc1cnc(Cl)s1` [Exp. 14, 1,6-bis[1-(2-chloro-5-thiazolylmethyl)-2-nitroiminoimidazolidin-3-yl]hexane] the “log (1/MLD)” value was 7.56.
